Test results as given in US10588280B2, “Aided delivery of plant treatment agents” (Monsanto Technology LLC, priority 2014, dated 2020).

How the values were obtained:
Type in all cases: in vivo
[1] = system: haploid maize seedlings (shoot meristem); assay: Example 1: single unsubmerged centrifugation after colchicine soak, chromosome doubling success; conditions: 1250 ppm colchicine 10 min soak, unsubmerged spin 335 g 3 min
Source text: Corn seeds of four different maize F1 hybrid-derived haploid induction populations were used in this experiment; two of the populations, Male 1 and Male 2, were derived from two different male inbred lines and the remaining two populations, Female 1 and Female 2, were derived from two different female inbred lines. Seeds of each germplasm were germinated in soil and the subsequent seedlings tended in a greenhouse under standard maize growing conditions until the seedlings reached the V1 to V2 growth stages.
Next, several randomly-selected seedlings of each germplasm were then removed from the soil, washed to remove residual soil and then subjected to a contacting step which included soaking the seedlings for 10 minutes in a liquid doubling agent comprising 1250 ppm colchicine.
After the contacting step, seedlings were bundled in a PCS with wooden rods, similar to that described in FIG. 9. The seedlings and rods were wrapped tightly together with several layers of aluminum foil. Care was taken to wrap the seedlings tightly, but not so tight as to damage the tissues of the seedling. The folds and layers of the wrap were arranged such that any liquid agent still clinging to the surface of the plant would not be trapped inside the wrap during centrifugation.
Once arranged in the centrifuge, seedlings were subjected to an unsubmerged centrifugation at 335 g for 3 min.
After centrifugation, the seedlings were removed from the centrifuge container, rinsed with water to remove any remaining plant treatment agent, and then transplanted into 10-inch pots in a growth room where they were tended under standard maize growing conditions until they grew to maturity and flowered.
Self-pollinations were attempted with each plant that survived the treatment to produce pollen and during the ensuing growth the pollination success, fertilization success and final doubling efficiency were determined within each sample.
Control samples of several randomly-selected seedlings from each germplasm received no exposure to the plant treatment agent, but were otherwise handled identically as their treated counterparts.

[2] = system: haploid corn seedlings (SAM); assay: Example 3: serial (submerged then unsubmerged) centrifugation with colchicine, survival and doubling success; conditions: for DE / Fert. Success / Initial Survival / Poll. Success: 1000 ppm colchicine, submerged 50 g 3 min then unsubmerged 335 g 3 min
Source text: Seeds of 5 different F1 hybrid-derived haploid corn lines were randomly-selected and germinated in a greenhouse. The resulting seedlings were removed from soil or growth media at the V1-V3 growth stage and the soil or growth media rinsed from the plants with water. Seedlings were then aligned and assembled along with several rods in a bundled PCS similar to what is shown in FIG. 9 and a plant treatment solution comprising 1000 ppm colchicine was poured into the container such that the solution submerged the SAM of each plant and then the entire sample was centrifuged at 50 g for 3 min while the SAMs remained submerged in the plant treatment agent.
Following the first centrifugation, the plant treatment solution was decanted and the seedlings subjected to an unsubmerged centrifugation at 335 g for 3 min.
(§1) Following the second centrifugation, the plants were removed from the centrifugation container and rinsed with water to remove any remaining colchicine solution, and then recovered and tended in a light, humidity, and temperature-controlled greenhouse for several days before being transplanted to a nursery greenhouse.
The control sample received no colchicine exposure, but was otherwise handled identically as the experimental samples. During the subsequent growth of the plants, the initial survival, pollination success, fertilization success, final survival, and doubling efficiency was determined within each sample as described in Example 2.

[3] = system: haploid corn seedlings; assay: Example 5: field transplanting survival after single or serial spin with colchicine; conditions: for 3-wk Survival (field transplanting): 50 g
Description: Haploid corn seedlings derived from a cross between commercial inbred 01DKD2 and the inducer KHI1 or commercial inbred 83IDI1 and KHI1 were treated by either single spin or serial spin centrifugation methods and recovered in a light, moisture, and temperature controlled environment for approximately 15 hours. Plants were then transplanted into a field and tended for three weeks, after which plant survival rates were assessed (Table 5).

[4] = system: seedlings of inbred lines 83IDI1 or 91DUQ1; assay: Example 10: seedling survival after unsubmerged centrifugation for 3 or 180 min with colchicine; conditions: 1250 ppm colchicine submerged 50 g 3 min, after one week
Description: Seedlings of one of two genetically diverse inbred lines (83IDI1 or 91DUQ1) were germinated in a greenhouse and removed from soil or growth media at the V1-V3 growth stage and rinsed with water to remove residual soil. All seedlings were then secured in PCSs comprising wraps and rods, like that shown in FIG. 9, and subjected to a submerged spin at 50 g in a liquid treatment solution comprising 1250 ppm colchicine for 3 min.
Following the first, submerged centrifugation, the plant treatment solution was decanted and the bundled seedlings were subjected to an unsubmerged centrifugation at 340 g for either 3 or 180 min.
as §1, with “one week, then the number of plants surviving were counted” for “several days before being transplanted”, “determine the survival rate within each treatment.” for “a nursery greenhouse.”

COc1cc2c(c(OC)c1OC)-c1ccc(OC)c(=O)cc1[C@@H](NC(C)=O)CC2 [colchicine]
DE (doubling efficiency) ([1]; Female1): 42% | Fertilization Successes ([1]; Female1, 19 plants treated): 8 | Pollination Successes ([1]; Female1, 19 plants treated): 10 | DE (doubling efficiency) ([1]; Female2): 50% | Fertilization Successes ([1]; Female2, 8 plants treated): 4 | Pollination Successes ([1]; Female2, 8 plants treated): 6 | DE (doubling efficiency) ([1]; Male1): 71% | Fertilization Successes ([1]; Male1, 14 plants treated): 10 | Pollination Successes ([1]; Male1, 14 plants treated): 13 | DE (doubling efficiency) ([1]; Male2): 67% | Fertilization Successes ([1]; Male2, 15 plants treated): 10 | Pollination Successes ([1]; Male2, 15 plants treated): 12 | DE ([2]; Ave: of five lines): 72% | Fert. Success ([2]; Ave: of five lines): 94% | Initial Survival ([2]; Ave: of five lines): 93% | Poll. Success ([2]; Ave: of five lines): 85% | DE ([2]; line F1004): 57% | Fert. Success ([2]; line F1004): 100% | Initial Survival ([2]; line F1004): 93% | Poll. Success ([2]; line F1004): 62% | DE ([2]; line F1045): 75% | Fert. Success ([2]; line F1045): 100% | Initial Survival ([2]; line F1045): 100% | Poll. Success ([2]; line F1045): 75% | DE ([2]; line F1095): 80% | Fert. Success ([2]; line F1095): 92% | Initial Survival ([2]; line F1095): 100% | Poll. Success ([2]; line F1095): 87% | DE ([2]; line F1118): 60% | Fert. Success ([2]; line F1118): 86% | Initial Survival ([2]; line F1118): 70% | Poll. Success ([2]; line F1118): 100% | DE ([2]; line F1900): 90% | Fert. Success ([2]; line F1900): 90% | Initial Survival ([2]; line F1900): 100% | Poll. Success ([2]; line F1900): 100% | individuals that produced pollen and silks ([2]; minimum over all five inbred samples receiving the experimental treatment): at least 62% | increase in overall DE as compared to controls ([2]; samples receiving serial centrifugation with 1000 ppm colchicine vs controls): 67% | 3 week post transplanting survival rate ([3]; either haploid line, regardless of colchicine concentration or second spin): higher than 80% | 3-wk Survival (field transplanting) ([3]; haploid parent 01DKD2, 1000 ppm colchicine, submerged 10 min, no second spin): 94% | 3-wk Survival (field transplanting) ([3]; haploid parent 01DKD2, 1250 ppm colchicine, submerged 3 min, unsubmerged 3 min, 335 g): 89% | 3-wk Survival (field transplanting) ([3]; haploid parent 83IDI1, 1000 ppm colchicine, submerged 10 min, no second spin): 81% | 3-wk Survival (field transplanting) ([3]; haploid parent 83IDI1, 1250 ppm colchicine, submerged 3 min, unsubmerged 3 min, 335 g): 83% | Survival ([4]; pedigree 83IDI1, unsubmerged 340 g for 3 minutes): 93% | Survival ([4]; pedigree 83IDI1, unsubmerged 340 g for 180 minutes): 94% | Survival ([4]; pedigree 91DUQ1, unsubmerged 340 g for 3 minutes): 95% | Survival ([4]; pedigree 91DUQ1, unsubmerged 340 g for 180 minutes): 96%
